In PubChem BioAssay (NCI):
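1) Cells in 96-well plates. 2) Compound, 48 h, 5 concentrations. 3) Linear interpolation between surrounding doses. 4) Unreached endpoint = highest concentration. The concentration for full growth arrest is given as TGI.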

Key:
Assay in all cases: NCI anticancer screen, dose series, 48 h
HS 578T breast = system: HS 578T breast
SK-MEL-28 melanoma = system: SK-MEL-28 melanoma
KM12 colon = system: KM12 colon
HT29 colon = system: HT29 colon
U251 CNS = system: U251 CNS
NCI-H23 lung = system: NCI-H23 lung
MDA-MB-435 = system: MDA-MB-435
CAKI-1 renal = system: CAKI-1 renal
MCF7 breast = system: MCF7 breast
MDA-MB-231 breast = system: MDA-MB-231 breast

Row | SMILES | TGI (HS 578T breast) [µM] | TGI (SK-MEL-28 melanoma) [µM] | TGI (KM12 colon) [µM] | TGI (HT29 colon) [µM] | TGI (U251 CNS) [µM] | TGI (NCI-H23 lung) [µM] | TGI (MDA-MB-435) [µM] | TGI (CAKI-1 renal) [µM] | TGI (MCF7 breast) [µM] | TGI (MDA-MB-231 breast) [µM]
1 | Cc1ccc2c(=O)cc(-c3ccc(-c4ccccc4)s3)[nH]c2n1 | > 72.6 | > 100 | > 100 | > 100 | > 100 | > 100 | > 100 | > 100 | > 100 | > 100
2 | Cc1ccc2nc(NC(=O)/C(Cc3nc4ccc(Cl)cc4[nH]c3=O)=N\NC(C)(C)C)sc2c1 | 73 | > 100 | > 100 | > 100 | > 100 | > 100 | > 100 | 89.7 | > 100 | > 100
3 | CCOc1ccc(-n2nnc3c(N)nc(N)nc32)cc1 |  | > 100 | > 100 | > 100 | > 100 | > 100 | > 100 | > 100 | > 100 | > 100
4 | O=C1NC(=S)N(c2ccccc2)C1=O | > 100 | > 100 | > 100 | > 100 | > 100 | > 100 | > 100 | > 100 |  | > 100
5 | CC(C)CN=C(N)N=C(N)N | > 100 | > 100 | > 100 | > 100 | > 100 | > 100 | > 100 |  | > 100 | > 100
6 | CC1(O)OC(=O)C2=C1CCC1C2CCC2(C)C(O)CCC12 (stereo not drawn) | > 100 | > 100 | > 100 | > 100 | > 100 | > 100 | > 100 | > 100 | > 100 | > 100
7 | O=C(CSC1=NCCN1)Nc1ccccc1 | 65.9 | 62.6 | > 100 | > 100 | 39.2 | > 100 | > 100 | > 100 |  | 50.3
8 | Nc1ccc(C(=O)NN2C(=O)C(Cl)C2c2ccccc2)cc1 (stereo not drawn) |  | > 100 | > 100 | > 100 | > 100 | > 100 |  | > 100 |  | 
9 | Cc1nc(-c2ccc(N=Cc3ccc(N(CCOS(C)(=O)=O)CCOS(C)(=O)=O)cc3C)cc2)cs1 | > 100 | > 100 | > 100 | > 100 | > 100 | > 100 | > 100 |  | 53.6 | > 100
10 | Nc1nc(Cl)c(N)c(NCC2(CO)CC(CCCc3ccccc3)C2)n1 (stereo not drawn) | > 100 | > 100 | > 100 | > 22.8 | > 100 | > 84.4 | > 100 | > 100 | > 85.7 | 99.7
11 | O=C(Nc1cccc(F)c1)c1cc2ccc(O)cc2oc1=Nc1ccccc1F | 14.1 | 18 | 22.4 | 51.5 | 13.4 | 5.86 | 14.2 | 15 | 25.7 | 
12 | COc1ccc2c(c1)CCN1CCc3cc(OC)c(OC)cc3CC21 (stereo not drawn) | > 100 | > 100 | > 100 | > 100 | > 100 | > 100 | > 100 | > 100 | > 100 | > 100
13 | COC(=O)c1c(O)ccc2c1C1(Cc3ccccc3C1=O)C(O)O2 (stereo not drawn) | 61 | > 100 | 69.1 | > 100 | 61.4 | > 100 | 31.1 | 61.8 | > 100 | 52.1
14 | CCOP(=O)(OCC)C(C)(CC)NC (stereo not drawn) | > 100 | > 100 | > 100 | > 100 | > 100 | > 100 | > 100 | > 100 | > 100 | > 100
15 | O=C(O)CNC(=O)c1c2ccccc2nc2ccccc12 |  | > 100 | > 100 | > 100 | > 100 | > 100 | > 100 | > 100 | > 100 | > 100
16 | FC(F)(F)c1ccc2nc(Sc3ccccn3)cnc2c1 | > 100 | > 100 | > 100 | > 100 | 42.3 | 78.8 | > 100 | > 100 | > 100 | > 100
17 | COc1cc([C@@H]2c3cc(O)c(OC)cc3C=C(C(N)=O)[C@H]2C(N)=O)ccc1O | > 100 | > 100 | > 100 | > 100 | > 100 | > 100 | > 100 | > 100 | > 100 | > 100
18 | Nc1ccc(CCN2CCN(CCCc3ccccc3)CC2)cc1 | > 100 | > 100 | > 100 | > 100 | > 100 | > 100 | > 100 | > 100 | > 100 | > 100
19 | CC1OC(OC2C(OC(=O)[C@@H]3CC(C)(C)C[C@H]4C5=CC[C@@H]6[C@@]7(C)C[C@H](O)[C@H](OC8OC(CO)C(O)C(O)C8O)[C@@](C)(CO)[C@@H]7[C@H](O)C[C@@]6(C)[C@]5(C)CC[C@@]34C)OCC(O)C2O)C(O)C(O)C1O (stereo partly drawn) | > 7.5 |  | > 7.5 | > 7.5 | > 7.5 | > 7.5 | > 7.5 | > 7.5 | > 7.5 | > 7.5
20 | CCNC1=C(NC(=O)CC)C(=O)c2ccccc2C1=O | > 100 | > 100 | > 100 | > 100 | > 100 | > 100 |  |  | > 100 | > 100
21 | CCC1(COC(NC(=O)c2ccccc2)(C(F)(F)F)C(F)(F)F)COC1 | > 100 | > 100 |  | > 100 | > 100 | > 100 | > 100 | > 100 |  | 
22 | CCC(c1c[nH]c2ccc(Br)cc12)c1c[nH]c2ccc(Br)cc12 | 27 | 25.4 | 4.22 | 10.4 | 13.3 | 11 | 11 | 6.58 | 15.5 | 25.4
